Source: patent publication US6790864B2, “Compositions and methods to prevent toxicity induced by nonsteroidal antiinflammatory drugs” (NitroMed, Inc., priority 1995, dated 2004)

Legend:
carrageenin paw edema = experiment: rat paw edema test (antiinflammatory activity); format: in vivo, rats; conditions: ratio of activity relative to the parent NSAID; oral gavage one hour prior to carrageenin, paw volume after three hours
Description: The rat paw edema test was used to measure antiinflammatory activity. The rat paw edema test was performed according to the method of Winter et al., Proc. Soc. […] Male Sprague-Dawley rats (250-275 g) were fasted overnight and dosed by oral gavage with vehicle or suspensions of compound one hour prior to the subplantar injection of 50 μl of 1% suspension of carrageenin. Three hours later, the paw volume was measured and compared with the initial volume measured immediately after carrageenin injection.

gastric lesion [1] = experiment: rat gastric lesion test, acute (single dose); format: in vivo, rats
Description: (§1) The rat gastric lesion test (Kitagawa et al., J. Pharmacol. Exp.Ther., 253:1133-1137, 1990; Al-Ghamdi et al., J. Int. Med. Res., 19: 2242, 1991) was used to evaluate the potential of compounds to produce gastric lesion. Male Sprague Dawley rats (Charles River Laboratories, Wilmington, Mass.) weighing 230-250 g were used for the experiments. The rats were housed with laboratory chow and water ad libitum prior to the study. The rats were fasted for 24-30 hours with free access to water and then dosed by oral gavage with vehicle or with drugs given at a volume of 0.5 mL/100 g. For the unmodified NSAIDs being given in combination with a nitric oxide adduct (NO-adduct), the NO-adduct was administered by oral gavage immediately prior to the administration of NSAID by oral gavage. Food was withheld for 18 hours after the initial dosing. For acute studies, rats were euthanized by CO2 eighteen hours after dosing and the stomachs were dissected. For the multiple dosing studies, the results of which are in Table 3, food was given eighteen hours after the first dose and the rats were maintained on food and water ad libitum while receiving a single daily dose for the remainder of the experiment. […] The stomachs were dissected along the greater curvature, washed with a directed stream of 0.9% saline and pinned open on a sylgard based petridish for examination of the hemorrhagic lesion. Gastric lesion score was expressed in mm and calculated by summing the length of each lesion.

gastric lesion [2] = experiment: rat gastric lesion test, multiple dosing studies; format: in vivo, rats
Description: as §1, with “Food was withheld for 18 hours after the initial dosing.” left out, “For the multiple dosing studies, the results of which are in Table 3, food was given eighteen hours after the first dose and the rats were maintained on food and water ad libitum while receiving a single daily dose for the remainder of the experiment.” left out

[3] = tested on: phenylbenzoquinone-induced writhing; experiment: phenylbenzoquinone-induced writhing test in mice (analgesic activity); format: in vivo; conditions: ratio of activity relative to the parent NSAID; oral gavage 1 hour prior to phenylbenzoquinone i.p.
Description: The phenylbenzoquinone-induced writhing test in mice was used to measure analgesic activity. The ability of the compounds to inhibit phenylbenzoquinone-induced writhing in mice was measured using the method of Siegmund et al., Proc. Soc. […] Male CD-1 mice (Charles River Laboratories, Wilmington, Mass.) weighing 20-25 g were fasted overnight. Vehicle or compounds were administered by oral gavage 1 hour prior to i.p. injection of 2 mg/kg of phenylbenzoquinone. In the case of a nitric oxide adduct being given in combination with a NSAID, the nitric oxide adduct was administered immediately before the NSAID. Five minutes after the i.p. injection of phenylbenzoquinone, the number of writhes in a 5 minute period was counted.

[4] = ratio of activity relative to the parent NSAID, oral gavage, fasted rats
[5] = 7 days, fasted 24-30 hours before and 18 hours after first dosing, Ibuprofen 30, Example 11 50, Example 12 45 mg/kg
[6] = male, Sprague Dawley, rat, in vivo, po, 18 h

Molecule | Relative Activity Gastric Lesion (gastric lesion [1]; rat, in vivo, po) | Relative Activity Gastric Lesion (gastric lesion [1]; [6]) | Relative Activity Antiinflammation (carrageenin paw edema) | Relative Activity Gastric Lesion (gastric lesion [1]; [4]) | Relative Gastric Lesion Activity (gastric lesion [2]; [5]) | Relative Activity Analgesia [3] | Relative Gastric Lesion Activity (gastric lesion [2]; 4 days, fasted 24-30 hours before and 4 hours after first dosing, Ketoprofen 10, Example 4 14, Example 6 15 mg/kg)
4-O-Nitroso-1-(α-methyl-4-(2-methylpropyl)benzeneacetic Acid) Butyl Ester [Example 12] |  |  | 1 | <0.03 | + (1-20% of the gastric toxcity induced by the parent NSAID = +) |  | 
4-O-Nitroso-4-methyl-1-(3-benzoyl-α-methylbenzeneacetic Acid) Pentyl Ester [Example 5] |  |  |  |  |  | 1.1 | 
CC(C(=O)OCCC(C)(C)SN=O)c1cccc(C(=O)c2ccccc2)c1 (stereo not drawn) [Example 6, 3-S-Nitroso-3-methyl-1-(3-benzoyl-α-methylbenzeneacetic Acid) Butyl Ester] |  |  |  |  |  | 1 | ++ (21-40% of the gastric toxcity induced by the parent NSAID = ++)
CC(C)Cc1ccc(C(C)C(=O)OCCC(C)(C)SN=O)cc1 (stereo not drawn) [Example 11, 3-S-Nitroso-3-methyl-1-(α-methyl-4-(2-methylpropyl)benzeneacetic Acid) Butyl Ester] |  |  | 1 | <0.05 | + (1-20% of the gastric toxcity induced by the parent NSAID = +) |  | 
CC(C(=O)OCc1ccc(CON=O)cc1)c1cccc(C(=O)c2ccccc2)c1 (stereo not drawn) [Example 16, 4O-Nitroso-hydroxymethylene-(1-(3-benzoyl-α-methylbenzeneacetic Acid)) Benzyl Ester] |  |  |  |  |  | 1.1 | 
CN1C(C(=O)Nc2ccccn2)=C(O)c2ccccc2S1(=O)=O [Piroxicam, reference compound] |  | 1 |  |  |  | 1 | 

Second part, led by results:

Relative Activity Gastric Lesion (gastric lesion [1]; rat, in vivo, po) | Relative Activity Gastric Lesion (gastric lesion [1]; [6]) | Molecule | Relative Activity Antiinflammation (carrageenin paw edema) | Relative Activity Gastric Lesion (gastric lesion [1]; [4]) | Relative Gastric Lesion Activity (gastric lesion [2]; [5]) | Relative Activity Analgesia [3] | Relative Gastric Lesion Activity (gastric lesion [2]; 4 days, fasted 24-30 hours before and 4 hours after first dosing, Ketoprofen 10, Example 4 14, Example 6 15 mg/kg)
0.03 |  | CC(C(=O)OCCCCON=O)c1cccc(C(=O)c2ccccc2)c1 (stereo not drawn) [Example 4, 4-O-Nitroso-1-(3-benzoyl-α-methylbenzeneacetic Acid) Butyl Ester] | 0.58 |  |  | 1.6 | 
0.08 |  | COc1ccc2c(c1)c(CC(=O)OCCCCON=O)c(C)n2C(=O)c1ccc(Cl)cc1 [Example 8] | 1 |  |  | 1 | 
0.5 |  | CC(C(=O)OCCCCON=O)c1ccc(-c2ccccc2)c(F)c1 (stereo not drawn) [Example 13, 4-O-Nitroso-1-(2-Fluoro-α-methyl-biphenylacetic Acid) Butyl Ester] | 1.83 |  |  | 0.31 | 
 | 1 | CC(C(=O)O)c1ccc(-c2ccccc2)c(F)c1 (stereo not drawn) [Flurbiprofen, reference compound] | 1 |  |  | 1 | 
 | 1 | COc1ccc2c(c1)c(CC(=O)O)c(C)n2C(=O)c1ccc(Cl)cc1 [Indomethacin, reference compound] | 1 |  |  | 1 | 
